In patent publication US20020068827A1, “Quinoline-4-carboxamide derivatives, their preparation and their use as neurokinin 3 ( NK-3 ) - and neurokinin 2 ( NK-3 ) receptor antagonists” (SmithKline Beecham S.p.A., priority 1995, published 2002):
Where a name gives a salt, the structure may show the parent alone.

Assays:
[1] = target: T1, human neurokinin-3 receptors expressed in CHO cell lines (Homo sapiens, UniProt P29371); experiment: Binding affinity in hNK-3-CHO; conditions: human NK-3 receptors in CHO cell lines; radioligand [125I]-[Me-Phe7]-NKB
T1 construct: expressed in transfected cells; host or cells: CHO cells
T1 sequence (P29371 1-465): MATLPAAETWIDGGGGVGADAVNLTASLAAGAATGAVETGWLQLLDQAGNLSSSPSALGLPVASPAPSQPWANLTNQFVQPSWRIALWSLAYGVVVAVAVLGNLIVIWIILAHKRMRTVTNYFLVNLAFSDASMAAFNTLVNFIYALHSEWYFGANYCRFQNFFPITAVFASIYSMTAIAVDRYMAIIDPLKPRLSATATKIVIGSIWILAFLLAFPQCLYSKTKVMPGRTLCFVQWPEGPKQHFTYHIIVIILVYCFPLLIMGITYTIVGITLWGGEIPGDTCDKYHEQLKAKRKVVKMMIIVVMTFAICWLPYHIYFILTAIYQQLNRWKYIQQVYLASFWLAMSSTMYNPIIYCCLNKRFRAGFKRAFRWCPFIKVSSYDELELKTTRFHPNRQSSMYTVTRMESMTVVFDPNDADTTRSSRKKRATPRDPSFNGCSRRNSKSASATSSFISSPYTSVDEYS
Experimental: The activity of the compounds of the present invention, as NK3 ligands, is determined by their ability to inhibit the binding of the radiolabelled NK3 ligands. [^125I]-[Me-Phe^7]-NKB or [^3H]-Senktide, to guinea-pig and human NK3 receptors (Renzetti et al. 1991, Neuropeptide, 18, 104-114; Buell et al, 1992, FEBS, 299(1), 90-95; Chung et al, 1994, Biochem. Biophys. Res. Commun., 198(3), 967-972).
The binding assays utilized allow the determination of the concentration of the individual compound required to reduce by 50% the [^125I]-[Me-Phe^7]-NKB and [^3H]-Senktide specific binding to NK3 receptor in equilibrium conditions (IC50).
Binding assays provide for each compound tested a mean IC50 value of 2-5 separate experiments performed in duplicate or triplicate. […] The NK3-antagonist activity of the compounds of the present invention is determined by their ability to inhibit senktide-induced contraction of the guinea-pig ileum (Maggi et al, 1990, Br. J. Pharmacol., 101, 996-1000) and rabbit isolated iris sphincter muscle (Hall et al., 1991, Eur. J. Pharmacol., 199, 9-14) and human NK3 receptors-mediated Ca^++ mobilization (Mochizuki et al. 1994, J. Biol. Chem., 269, 9651-9658). Guinea-pig and rabbit in-vitro functional assays provide for each compound tested a mean KB value of 3-8 separate experiments, where KB is the concentration of the individual compound required to produce a 2-fold rightward shift in the concentration-response curve of senktide. Human receptor functional assay allows the determination of the concentration of the individual compound required to reduce by 50% (IC50 values) the Ca^++ mobilization induced by the agonist NKB. In this assay, the compounds of the present invention behave as antagonists.

Row | melting point | IC50 [1] | Compound
1 | 160 to 170 °C |  | CC[C@H](NC(=O)c1c(OCCCN2CCN(C)CC2)c(-c2ccccc2)nc2ccccc12)c1ccccc1 (as salt: HCl) [Example 31]
2 | 86 °C (dec.) |  | CC[C@H](NC(=O)c1c(OCCCN2CCN(c3ccccc3)CC2)c(-c2ccccc2)nc2ccccc12)c1ccccc1 (as salt: HCl) [Example 33]
3 | 140 °C (dec.) |  | CC[C@H](NC(=O)c1c(OCCCN2CCN(c3ncccn3)CC2)c(-c2ccccc2)nc2ccccc12)c1ccccc1 (as salt: HCl) [Example 40]
4 |  | 1.6 nM | CC[C@H](NC(=O)c1c(OCCO)c(-c2ccccc2)nc2ccccc12)c1ccccc1 [Example 2, (S)-N-(α-ethylbenzyl)-3-(2-hydroxyethoxy)-2-phenylquinoline-4-carboxamide]
5 | 95 °C (dec.) | 1.2 nM | CC[C@H](NC(=O)c1c(OCCN2Cc3ccccc3C2)c(-c2ccccc2)nc2ccccc12)c1ccccc1.Cl.Cl [Example 5, (S)-N-(α-ethylbenzyl)-3-[2-(2-isoindolinyl)ethoxy]-2-phenylquinoline-4-carboxamide Dihydrochloride]
6 | 159 to 161 °C | 0.8 nM | CC[C@H](NC(=O)c1c(OCCN2C(=O)Cc3ccccc3C2=O)c(-c2ccccc2)nc2ccccc12)c1ccccc1 [Example 6, (S)-N-(α-ethylbenzyl)-3-(2-homophthalimidoethoxy)-2-phenylquinoline-4-carboxamide]
7 | 125 to 128 °C | 3.2 nM | CC[C@H](NC(=O)c1c(OCCCN2C(=O)c3ccccc3C2=O)c(-c2ccccc2)nc2ccccc12)c1ccccc1 [Example 9, (S)-N-(α-ethylbenzyl)-3-(3-phthalimidopropoxy)-2-phenylquinoline-4-carboxamide]
8 |  | 2.6 nM | CC[C@H](NC(=O)c1c(OCCCN)c(-c2ccccc2)nc2ccccc12)c1ccccc1 [Example 11, (S)-N-(α-ethylbenzyl)-3-(3-aminopropoxy)-2-phenylquinoline-4-carboxamide Hydrochloride]
9 | 153 to 156 °C | 1.7 nM | CC[C@H](NC(=O)c1c(OCCN2Cc3ccccc3CC2=O)c(-c2ccccc2)nc2ccccc12)c1ccccc1 [Example 14, (S)-N-(α-ethylbenzyl)-3-[2-(1,4-dihydro-3(2H)-isoquinolinon-2-yl)ethoxy]-2-phenylquinoline-4-carboxamide]
10 | 80 °C (dec.) |  | CC[C@H](NC(=O)c1c(OCCN2C(=O)CCC2=O)c(-c2ccccc2)nc2ccccc12)c1ccccc1 [Example 15, (S)-N-(α-ethylbenzyl)-3-(2-succinimidoethoxy)-2-phenylquinoline-4-carboxamide]
11 | 74 to 78 °C |  | CC[C@H](NC(=O)c1c(OCCN2C(=O)C=CC2=O)c(-c2ccccc2)nc2ccccc12)c1ccccc1 [Example 16, (S)-N-(α-ethylbenzyl)-3-(2-maleimidoethoxy)-2-phenylquinoline-4-carboxamide]
12 | 160 to 162 °C | 3.4 nM | CC[C@H](NC(=O)c1c(OCCN2C(=O)CNC2(C)C)c(-c2ccccc2)nc2ccccc12)c1ccccc1 [Example 17, (S)-N-(α-ethylbenzyl)-3-[2-(2,2-dimethyl-4-oxo-3-imidazolidinyl)ethoxy]-2-phenylquinoline-4-carboxamide]
13 | 151 to 155 °C | 0.4 nM | CC[C@H](NC(=O)c1c(OCCCN2CCN(c3ccccc3OC)CC2)c(-c2ccccc2)nc2ccccc12)c1ccccc1.Cl.Cl [Example 18, (S)-N-(α-ethylbenzyl)-3-{3-[4-(2-methoxyphenyl)piperazin-1-yl]propoxy}-2-phenylquinoline-4-carboxamide Dihydrochloride]
14 | 147 to 150 °C | 0.9 nM | CC[C@H](NC(=O)c1c(OCCN2C(=O)[C@@H](c3ccccc3)NC2(C)C)c(-c2ccccc2)nc2ccccc12)c1ccccc1 [Example 21, (S)-N-(α-ethylbenzyl)-3-{2-[2,2-dimethyl-5-(R)-phenyl-4-oxo-3-imidazolidinyl]ethoxy}-2-phenylquinoiine-4-carboxamide]
15 | 71 °C (dec.) | 1.3 nM | CC[C@H](NC(=O)c1c(OCCN2CCc3ccccc3C2=O)c(-c2ccccc2)nc2ccccc12)c1ccccc1 [Example 22, (S)-N-(α-ethylbenzyl)-3-[2-(3,4-dihydro-1(2H)-isoquinolinon-2-yl)ethoxy]-2-phenylquinoline-4-carboxamide]
16 | 142 to 145 °C | 1.1 nM | CC[C@H](NC(=O)c1c(CN2CCN(c3ccccc3)CC2)c(-c2ccccc2)nc2ccccc12)c1ccccc1 [Example 30]
17 |  | 3.3 nM | CC[C@H](NC(=O)c1c(OCCCN2CCN(C)CC2)c(-c2ccccc2)nc2ccccc12)c1ccccc1 [Example 31]
18 |  | 0.7 nM | CC[C@H](NC(=O)c1c(OCCCN2CCN(c3ccccc3)CC2)c(-c2ccccc2)nc2ccccc12)c1ccccc1 [Example 33]
19 | 115 to 135 °C | 0.8 nM | CC[C@H](NC(=O)c1c(OCCCN2CCN(c3cccc(Cl)c3)CC2)c(-c2ccccc2)nc2ccccc12)c1ccccc1 [Example 34]
20 |  | 1.1 nM | CC[C@H](NC(=O)c1c(OCCCN2CCN(c3ncccn3)CC2)c(-c2ccccc2)nc2ccccc12)c1ccccc1 [Example 40]
21 | 100 to 105 °C | 2.7 nM | CC[C@H](NC(=O)c1c(OCCCN2C(=O)c3nccnc3C2=O)c(-c2ccccc2)nc2ccccc12)c1ccccc1 [Example 42]
